Experimental data from the NIST ThermoML archive (doi:10.1016/j.jct.2015.08.014).
± gives the expanded uncertainty stated by the source.

Assay: xn = mol fraction of the nth substance listed
Conditions: 323.15 K, 100 kPa, Liquid, Alternating current cell with electrodes

CCCC[N+]1(C)CCCC1.N#CN=C=[N-] [1-butyl-1-methylpyrrolidinium dicyanamide] + O=C1CCCO1
electrical conductivity [S/m]
Conditions	Frequency=0.001 MHz	Frequency=0.0015 MHz	Frequency=0.002 MHz	Frequency=0.0025 MHz	Frequency=0.003 MHz	Frequency=0.00347222 MHz	Frequency=0.004 MHz	Frequency=0.00446429 MHz	Frequency=0.005 MHz	Frequency=0.005454 MHz
x1 = 0.0463	–	2 ± 0.037	2 ± 0.037	2.01 ± 0.037	2.01 ± 0.037	2.01 ± 0.037	2.01 ± 0.037	2.01 ± 0.037	2.01 ± 0.037	2.01 ± 0.037
x1 = 0.0987	3.06 ± 0.039	3.07 ± 0.039	3.07 ± 0.039	3.07 ± 0.039	3.08 ± 0.039	3.08 ± 0.039	3.08 ± 0.039	3.08 ± 0.039	3.08 ± 0.039	3.08 ± 0.039
x1 = 0.1449	3.56 ± 0.038	3.56 ± 0.038	3.56 ± 0.038	3.56 ± 0.038	3.56 ± 0.038	3.57 ± 0.038	3.57 ± 0.038	3.57 ± 0.038	3.57 ± 0.038	3.57 ± 0.038
x1 = 0.1859	3.83 ± 0.039	3.84 ± 0.039	3.84 ± 0.039	3.85 ± 0.039	3.85 ± 0.039	3.85 ± 0.039	3.85 ± 0.039	3.85 ± 0.039	3.85 ± 0.039	3.85 ± 0.039
x1 = 0.2493	3.89 ± 0.039	3.89 ± 0.039	3.89 ± 0.039	3.89 ± 0.039	3.89 ± 0.039	3.89 ± 0.039	3.89 ± 0.039	3.89 ± 0.039	3.89 ± 0.039	3.89 ± 0.039
x1 = 0.3029	3.86 ± 0.039	3.87 ± 0.039	3.87 ± 0.039	3.87 ± 0.039	3.87 ± 0.039	3.87 ± 0.039	3.87 ± 0.039	3.87 ± 0.039	3.87 ± 0.039	3.88 ± 0.039
x1 = 0.3845	3.732 ± 0.037	3.73 ± 0.038	3.74 ± 0.038	3.74 ± 0.038	3.74 ± 0.038	3.74 ± 0.038	3.74 ± 0.038	3.74 ± 0.038	3.74 ± 0.038	3.74 ± 0.038
x1 = 0.4985	3.46 ± 0.035	3.46 ± 0.035	3.46 ± 0.035	3.46 ± 0.035	3.46 ± 0.035	3.46 ± 0.035	3.46 ± 0.035	3.46 ± 0.035	3.46 ± 0.035	3.46 ± 0.035
x1 = 0.6954	2.99 ± 0.03	2.99 ± 0.03	2.99 ± 0.03	2.99 ± 0.03	2.99 ± 0.03	2.99 ± 0.03	2.99 ± 0.03	2.99 ± 0.03	2.99 ± 0.03	2.99 ± 0.03
x1 = 0.9013	2.626 ± 0.026	2.628 ± 0.026	2.63 ± 0.026	2.63 ± 0.026	2.631 ± 0.026	2.632 ± 0.026	2.632 ± 0.026	2.632 ± 0.026	2.633 ± 0.026	–
x1 = 1	2.526 ± 0.025	2.527 ± 0.025	2.528 ± 0.025	2.528 ± 0.025	2.528 ± 0.025	2.528 ± 0.025	2.529 ± 0.025	2.529 ± 0.025	2.529 ± 0.025	–
